System: 4T1 tumors
Experiment: Therapeutic efficacy in mice bearing 4T1 tumors
Assay type: in vivo
Conditions: doxorubicin equivalent 5 mg/kg, four treatments once every 3 days
Protocol: Referring to FIGS. 22 and 23, the amounts of doxorubicin in four groups are equivalent at 5 mg/kg, and all mice received a total of four treatments once every 3 days.

COc1cccc2c1C(=O)c1c(O)c3c(c(O)c1C2=O)C[C@@](O)(C(=O)CO)C[C@@H]3O[C@H]1C[C@H](N)[C@H](O)[C@H](C)O1 [free doxorubicin, doxorubicin]
effect on tumor progression / tumor growth: Neither mice treated with free doxorubicin nor with MSNs-Tz/anti-CD11b-TCO without doxorubicin had an effect on tumor progression

Reference: patent US20220117903A1, “DRUG DELIVERY SYSTEM AND METHOD” (SEOUL NATIONAL UNIVERSITY R&DB FOUNDATION, priority 2019, published 2022)
